These results are taken from patent US9375409B2, “Use of polyunsaturated ketones for the treatment of psoriasis” (Avexxin AS, priority 2002, dated 2016).

Like-named read-outs stand apart in the source and are kept apart here.

Data set [1] concerns HaCaT cells. Put plainly: MTT assay (toxicity). Format: cell-based, human. On the procedure: Confluent cells were pretreated with inhibitors in serum free medium for 1 hour, and then treated with stimulating agent for 1 hour. Conversion of substrate [3-(4, 5-dimethylthiazol-2-yl)-2, 5-diphenyl tetrazolium bromide] was measured as optical density at 580 nm after 4 hours according to Mosmann [Mosmann T, J. Immunol. Methods 65, 55-63, 1983]. For each concentration of inhibitor nine parallels were measured.

Data set [2] concerns the target recombinant human IV PLA2 (Homo sapiens, UniProt P47712). Put plainly: biochemical. The settings on record: for inhibition at 5 µM: read-out: inhibition of IV PLA2 enzyme activity.
Data set [3] has as its system PGE2 production in HaCaT cells. Put plainly: A23187-induced PGE2 release in LPS-stimulated HaCaT cells (PGE2 EIA). Format: cell-based. Particulars: Homo sapiens, 0.5 h, read-out: IC50 for inhibiting A23187-induced PGE2 release.
The mark [4] stands for this setting: read-out: IC50 for IV PLA2 inhibition.

recombinant human IV PLA2, sequence (P47712 whole entry): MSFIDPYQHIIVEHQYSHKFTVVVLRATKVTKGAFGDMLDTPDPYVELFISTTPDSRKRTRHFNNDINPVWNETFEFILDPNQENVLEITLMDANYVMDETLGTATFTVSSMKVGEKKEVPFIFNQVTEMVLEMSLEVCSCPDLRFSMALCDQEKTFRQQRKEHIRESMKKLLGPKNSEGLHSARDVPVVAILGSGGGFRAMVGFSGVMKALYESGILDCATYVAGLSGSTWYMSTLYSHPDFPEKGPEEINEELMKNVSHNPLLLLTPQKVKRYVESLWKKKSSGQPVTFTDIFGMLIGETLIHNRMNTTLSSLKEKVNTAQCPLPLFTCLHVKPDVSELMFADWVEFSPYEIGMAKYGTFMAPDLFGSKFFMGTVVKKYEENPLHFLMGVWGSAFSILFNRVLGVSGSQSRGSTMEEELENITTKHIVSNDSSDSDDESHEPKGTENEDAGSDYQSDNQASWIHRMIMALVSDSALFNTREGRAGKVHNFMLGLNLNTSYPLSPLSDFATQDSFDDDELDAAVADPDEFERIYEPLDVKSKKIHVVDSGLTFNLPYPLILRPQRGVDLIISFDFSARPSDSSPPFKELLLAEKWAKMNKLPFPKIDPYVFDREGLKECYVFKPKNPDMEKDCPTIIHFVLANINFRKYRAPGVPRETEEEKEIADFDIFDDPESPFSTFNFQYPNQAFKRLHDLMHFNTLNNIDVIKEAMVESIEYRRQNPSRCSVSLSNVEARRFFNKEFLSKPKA

In the case of `CNc1ccc2oc(C[C@H]3O[C@@]4(CC[C@H]3C)O[C@H]([C@H](C)C(=O)c3ccc[nH]3)[C@H](C)C[C@H]4C)nc2c1C(=O)O` [A23187], in data set [1], the “toxic concentration by MTT assay” value was “higher than 10 μM”.
For `CCCCC/C=C\C/C=C\C/C=C\C/C=C\CCCC(=O)C(F)(F)F` [AACOCF3, reference compound], in data set [2], the IC50 was 5.8 ± 1.9 µM and the inhibition at 5 µM lay in the range of 75 to 80%.
With `CC/C=C\C/C=C\C/C=C\C/C=C\C/C=C\C/C=C\CCC(=O)C(F)(F)F` [DHACOCF3], the half-maximal inhibitory concentration (IC50) in data set [2] (setting [4]) came out at 21.3 ± 1.5 µM. Further, the inhibition at 5 µM in data set [2] stood at 30%.
With `CC/C=C\C/C=C\C/C=C\C/C=C\C/C=C\CCCC(=O)C(F)(F)F` [EPACOCF3], the values for the IC50 in data set [2] (setting [4]) and in data set [3] (HaCaT) were 2.9 ± 1.9 µM and 0.18 µM, respectively. Besides, in data set [2], the inhibition at 5 µM was 75 to 80%.
For the compound `CC/C=C\C/C=C\C/C=C\C/C=C\C/C=C\CCSCC(=O)C(F)(F)F` [EPASCOCF3], the IC50 in data set [2] (setting [4]) worked out at 3.5 µM. Also, the inhibition at 5 µM in data set [2] lay within 75 to 80%.
As for `CS(=O)(=O)Nc1ccc([N+](=O)[O-])cc1OC1CCCCC1` [NS-398, reference compound], in data set [3] (LPS-stimulated HaCaT cells, inhibitor 0.2-25 μM for 30 min, FIG. 4), the IC50 turned out to be 0.24 µM.
